Results taken from US5399543A, “3-[4-(phenylmethoxy)phenyl]-1-substituted-6-haloalkyl-uracil herbicides” (FMC Corporation, priority 1993, dated 1995).

What was measured:
Morningglory [1] = assay: Postemergence herbicidal activity, morningglory; assay type: in vivo, Ipomea lacunosa or Ipomea hederacea; conditions: Ipomoea, post-emergence, 0.3 kg/ha, after 17-21 days, read-out: Postemergence herbicidal activity (% control), Morningglory
Description: (§1) The 3-[4-(phenylmethoxy)phenyl]-1-substituted-6-haloalkyluracil herbicides of this invention were tested for pre- and postemergence herbicidal activity using a variety of crops and weeds. The test plants included soybean (Glycine max var. Williams), field corn (Zea mays var. Agway 425X), wheat (Triticum aestivum var. Wheaton), morningglory (Ipomea lacunosa or Ipomea hederacea), velvetleaf (Abutilon theophrasti), green foxtail (Setaria viridis), Johnsongrass (Sorghum halepense), blackgrass (Aloepecurus myosuroides), common chickweed (Stellaria media), and common cocklebur (Xanthium pensylvanicum).
(§2) For preemergence testing, two disposable fiber flats (8 cm×15 cm×25 cm) for each rate of application of each candidate herbicide were filled to an approximate depth of 6.5 cm with steam-sterilized sandy loam soil. The soil was leveled and impressed with a template to provide five evenly spaced furrows 13 cm long and 0.5 cm deep in each flat. Seeds of soybean, wheat, corn, green foxtail, and johnsongrass were planted in the furrows of the first flat, and seeds of velvetleaf, morningglory, common chickweed, cocklebur, and blackgrass were planted in the furrows of the second flat. The five-row template was employed to firmly press the seeds into place. A topping soil of equal portions of sand and sandy loam soil was placed uniformly on top of each flat to a depth of approximately 0.5 cm. Flats for postemergence testing were prepared in the same manner except that they were planted 8-12 days prior to the preemergence flats and were placed in a greenhouse and watered, thus allowing the seeds to germinate and the foliage to develop.
(§3) In both pre- and postemergence tests, a stock solution of the candidate herbicide was prepared by dissolving 0.27 g of the compound in 20 mL of water/acetone (50/50) containing 0.5% v/v sorbitan monolaurate. For an application rate of 3000 g/ha of herbicide a 10 mL portion of the stock solution was diluted with water/acetone (50/50) to 45 mL.
(§4) The preemergence flats were initially subjected to a light water spray. The four flats were placed two by two along a conveyor belt (i.e., the two preemergence followed by the two postemergence flats). The conveyor belt fed under a spray nozzle mounted about ten inches above the postemergent foliage. The preemergent flats were elevated on the belt so that the soil surface was at the same level below the spray nozzle as the foliage canopy of the postemergent plants. The spray of herbicidal solution was commenced and once stabilized, the flats were passed under the spray at a speed to receive a coverage equivalent of 1000 L/ha. At this coverage the application rates are those shown in the above table for the individual herbicidal solutions. The preemergence flats were watered immediately thereafter, placed in the greenhouse and watered regularly at the soil surface. The postemergence flats were immediately placed in the greenhouse and not watered until 24 hours after treatment with the test solution. Thereafter they were regularly watered at ground level. After 17-21 days the plants were examined and the phytotoxicity data were recorded.
(§5) Herbicidal activity data at selected application rates are given for various compounds of this invention in Table 2 and Table 3. The test compounds are identified by numbers which correspond to those in Table 1.
(§6) Phytotoxicity data were taken as percent control. Percent control was determined by a method similar to the 0 to 100 rating system disclosed in "Research Methods in Weed Science," 2nd ed., B. Truelove, Ed.; Southern Weed Science Society; Auburn University, Auburn, Ala., 1977.

Blackgrass [2] = assay: Postemergence herbicidal activity, blackgrass; assay type: in vivo, Aloepecurus myosuroides; conditions: Alopecurus myosuroides, post-emergence, 0.3 kg/ha, after 17-21 days, read-out: Postemergence herbicidal activity (% control), Blackgrass
Description: as §1, §2, §3, §4, §5, §6

Green foxtail [3] = assay: Postemergence herbicidal activity, green foxtail; assay type: in vivo; conditions: Setaria viridis, post-emergence, 0.3 kg/ha, after 17-21 days, read-out: Postemergence herbicidal activity (% control), Green foxtail
Description: as §1, §2, §3, §4, §5, §6

Chickweed [4] = assay: Preemergence herbicidal activity, chickweed; assay type: in vivo; conditions: Stellaria media, pre-emergence, 0.3 kg/ha, after 17-21 days, read-out: Preemergence herbicidal activity (% control), Chickweed
Description: as §1, §2, §3, §4, §5, §6

Morningglory [5] = assay: Preemergence herbicidal activity, morningglory; assay type: in vivo, Ipomea lacunosa or Ipomea hederacea; conditions: Ipomoea, pre-emergence, 0.3 kg/ha, after 17-21 days, read-out: Preemergence herbicidal activity (% control), Morningglory
Description: as §1, §2, §3, §4, §5, §6

Johnsongrass [6] = assay: Postemergence herbicidal activity, johnsongrass; assay type: in vivo; conditions: Sorghum halepense, post-emergence, 0.3 kg/ha, after 17-21 days, read-out: Postemergence herbicidal activity (% control), Johnsongrass
Description: as §1, §2, §3, §4, §5, §6

Corn [7] = assay: Postemergence herbicidal activity, corn; assay type: in vivo, Zea mays var. Agway 425X; conditions: Zea mays, post-emergence, 0.3 kg/ha, after 17-21 days, read-out: Postemergence herbicidal activity (% control), Corn
Description: as §1, §2, §3, §4, §5, §6

Green foxtail [8] = assay: Preemergence herbicidal activity, green foxtail; assay type: in vivo; conditions: Setaria viridis, pre-emergence, 0.3 kg/ha, after 17-21 days, read-out: Preemergence herbicidal activity (% control), Green foxtail
Description: as §1, §2, §3, §4, §5, §6

Soybean [9] = assay: Preemergence herbicidal activity, soybean; assay type: in vivo, Glycine max var. Williams; conditions: Glycine max, pre-emergence, 0.3 kg/ha, after 17-21 days, read-out: Preemergence herbicidal activity (% control), Soybean
Description: as §1, §2, §3, §4, §5, §6

Cocklebur [10] = assay: Postemergence herbicidal activity, cocklebur; assay type: in vivo, Xanthium pensylvanicum; conditions: Xanthium strumarium, post-emergence, 0.3 kg/ha, after 17-21 days, read-out: Postemergence herbicidal activity (% control), Cocklebur
Description: as §1, §2, §3, §4, §5, §6

Chickweed [11] = assay: Postemergence herbicidal activity, chickweed; assay type: in vivo; conditions: Stellaria media, post-emergence, 0.3 kg/ha, after 17-21 days, read-out: Postemergence herbicidal activity (% control), Chickweed
Description: as §1, §2, §3, §4, §5, §6

Velvetleaf [12] = assay: Preemergence herbicidal activity, velvetleaf; assay type: in vivo; conditions: Abutilon theophrasti, pre-emergence, 0.3 kg/ha, after 17-21 days, read-out: Preemergence herbicidal activity (% control), Velvetleaf
Description: as §1, §2, §3, §4, §5, §6

Johnsongrass [13] = assay: Preemergence herbicidal activity, johnsongrass; assay type: in vivo; conditions: Sorghum halepense, pre-emergence, 0.3 kg/ha, after 17-21 days, read-out: Preemergence herbicidal activity (% control), Johnsongrass
Description: as §1, §2, §3, §4, §5, §6

Velvetleaf [14] = assay: Postemergence herbicidal activity, velvetleaf; assay type: in vivo; conditions: Abutilon theophrasti, post-emergence, 0.3 kg/ha, after 17-21 days, read-out: Postemergence herbicidal activity (% control), Velvetleaf
Description: as §1, §2, §3, §4, §5, §6

Soybean [15] = assay: Postemergence herbicidal activity, soybean; assay type: in vivo, Glycine max var. Williams; conditions: Glycine max, post-emergence, 0.3 kg/ha, after 17-21 days, read-out: Postemergence herbicidal activity (% control), Soybean
Description: as §1, §2, §3, §4, §5, §6

Wheat [16] = assay: Preemergence herbicidal activity, wheat; assay type: in vivo, Triticum aestivum var. Wheaton; conditions: Triticum aestivum, pre-emergence, 0.3 kg/ha, after 17-21 days, read-out: Preemergence herbicidal activity (% control), Wheat
Description: as §1, §2, §3, §4, §5, §6

Blackgrass [17] = assay: Preemergence herbicidal activity, blackgrass; assay type: in vivo, Aloepecurus myosuroides; conditions: Alopecurus myosuroides, pre-emergence, 0.3 kg/ha, after 17-21 days, read-out: Preemergence herbicidal activity (% control), Blackgrass
Description: as §1, §2, §3, §4, §5, §6

Wheat [18] = assay: Postemergence herbicidal activity, wheat; assay type: in vivo, Triticum aestivum var. Wheaton; conditions: Triticum aestivum, post-emergence, 0.3 kg/ha, after 17-21 days, read-out: Postemergence herbicidal activity (% control), Wheat
Description: as §1, §2, §3, §4, §5, §6

Corn [19] = assay: Preemergence herbicidal activity, corn; assay type: in vivo, Zea mays var. Agway 425X; conditions: Zea mays, pre-emergence, 0.3 kg/ha, after 17-21 days, read-out: Preemergence herbicidal activity (% control), Corn
Description: as §1, §2, §3, §4, §5, §6

Cocklebur [20] = assay: Preemergence herbicidal activity, cocklebur; assay type: in vivo, Xanthium pensylvanicum; conditions: Xanthium strumarium, pre-emergence, 0.3 kg/ha, after 17-21 days, read-out: Preemergence herbicidal activity (% control), Cocklebur
Description: as §1, §2, §3, §4, §5, §6

For `Cn1c(C(F)(F)F)cc(=O)n(-c2ccc(OCc3ccccc3Cl)cc2)c1=O` [Compound 2], the activity at 300 g/ha (Morningglory [1]) was 60%, the activity at 300 g/ha (Blackgrass [2]) was 0% and the activity at 300 g/ha (Green foxtail [3]) was 85%. For the same compound, the activity at 300 g/ha (Chickweed [4]) was 0%, the activity at 300 g/ha (Morningglory [5]) was 60% and the activity at 300 g/ha (Johnsongrass [6]) was 10%. It also gave an activity at 300 g/ha (Corn [7]) of 45%, an activity at 300 g/ha (Green foxtail [8]) of 100% and an activity at 300 g/ha (Soybean [9]) of 20%. It also gave an activity at 300 g/ha (Cocklebur [10]) of 30%, an activity at 300 g/ha (Chickweed [11]) of 0% and an activity at 300 g/ha (Velvetleaf [12]) of 100%. For the same compound, the activity at 300 g/ha (Johnsongrass [13]) was 70%, the activity at 300 g/ha (Velvetleaf [14]) was 80% and the activity at 300 g/ha (Soybean [15]) was 60%. It also gave an activity at 300 g/ha (Wheat [16]) of 5%, an activity at 300 g/ha (Blackgrass [17]) of 0% and an activity at 300 g/ha (Wheat [18]) of 0%. The activity at 300 g/ha (Corn [19]) was 15% and the activity at 300 g/ha (Cocklebur [20]) was 10%.

`Cc1cc(OCc2ccc(Cl)cc2)ccc1-n1c(=O)cc(C(F)(F)F)n(C)c1=O` [Compound 13] was tested, and the activity at 300 g/ha (Morningglory [1]) was 100%, the activity at 300 g/ha (Blackgrass [2]) was 20% and the activity at 300 g/ha (Green foxtail [3]) was 80%. For the same compound, the activity at 300 g/ha (Chickweed [4]) was 10%, the activity at 300 g/ha (Morningglory [5]) was 60% and the activity at 300 g/ha (Johnsongrass [6]) was 20%. The activity at 300 g/ha (Corn [7]) was 40%, the activity at 300 g/ha (Green foxtail [8]) was 100% and the activity at 300 g/ha (Soybean [9]) was 40%. For the same compound, the activity at 300 g/ha (Cocklebur [10]) was 90%, the activity at 300 g/ha (Chickweed [11]) was 30% and the activity at 300 g/ha (Velvetleaf [12]) was 100%. For the same compound, the activity at 300 g/ha (Johnsongrass [13]) was 90%, the activity at 300 g/ha (Velvetleaf [14]) was 100% and the activity at 300 g/ha (Soybean [15]) was 30%. For the same compound, the activity at 300 g/ha (Wheat [16]) was 0%, the activity at 300 g/ha (Blackgrass [17]) was 30% and the activity at 300 g/ha (Wheat [18]) was 0%. The activity at 300 g/ha (Corn [19]) was 30% and the activity at 300 g/ha (Cocklebur [20]) was 0%.

Work on `Cn1c(C(F)(F)F)cc(=O)n(-c2ccc(OCc3cc(Cl)cc(Cl)c3)cc2)c1=O` [Compound 43] yielded an activity at 300 g/ha (Morningglory [1]) of 10%, an activity at 300 g/ha (Blackgrass [2]) of 0% and an activity at 300 g/ha (Green foxtail [3]) of 0%. For the same compound, the activity at 300 g/ha (Chickweed [4]) was 0%, the activity at 300 g/ha (Morningglory [5]) was 0% and the activity at 300 g/ha (Johnsongrass [6]) was 30%. The activity at 300 g/ha (Corn [7]) was 30%, the activity at 300 g/ha (Green foxtail [8]) was 0% and the activity at 300 g/ha (Soybean [9]) was 0%. It also gave an activity at 300 g/ha (Cocklebur [10]) of 0%, an activity at 300 g/ha (Chickweed [11]) of 0% and an activity at 300 g/ha (Velvetleaf [12]) of 0%. For the same compound, the activity at 300 g/ha (Johnsongrass [13]) was 0%, the activity at 300 g/ha (Velvetleaf [14]) was 0% and the activity at 300 g/ha (Soybean [15]) was 10%. It also gave an activity at 300 g/ha (Wheat [16]) of 0%, an activity at 300 g/ha (Blackgrass [17]) of 0% and an activity at 300 g/ha (Wheat [18]) of 0%. The activity at 300 g/ha (Corn [19]) was 0% and the activity at 300 g/ha (Cocklebur [20]) was 0%.

`COc1cccc(COc2ccc(-n3c(=O)cc(C(F)(F)F)n(C)c3=O)cc2)c1` [Compound 8] was tested, and the activity at 300 g/ha (Morningglory [1]) was 100%, the activity at 300 g/ha (Blackgrass [2]) was 10% and the activity at 300 g/ha (Green foxtail [3]) was 100%. It also gave an activity at 300 g/ha (Chickweed [4]) of 90%, an activity at 300 g/ha (Morningglory [5]) of 65% and an activity at 300 g/ha (Johnsongrass [6]) of 100%. It also gave an activity at 300 g/ha (Corn [7]) of 85%, an activity at 300 g/ha (Green foxtail [8]) of 100% and an activity at 300 g/ha (Soybean [9]) of 10%. It also gave an activity at 300 g/ha (Cocklebur [10]) of 100%, an activity at 300 g/ha (Chickweed [11]) of 100% and an activity at 300 g/ha (Velvetleaf [12]) of 100%. The activity at 300 g/ha (Johnsongrass [13]) was 80%, the activity at 300 g/ha (Velvetleaf [14]) was 100% and the activity at 300 g/ha (Soybean [15]) was 85%. For the same compound, the activity at 300 g/ha (Wheat [16]) was 15%, the activity at 300 g/ha (Blackgrass [17]) was 10% and the activity at 300 g/ha (Wheat [18]) was 10%. It also gave an activity at 300 g/ha (Corn [19]) of 35% and an activity at 300 g/ha (Cocklebur [20]) of 0%.
